# Biological target: Plasminogen activator inhibitor 1 (Homo sapiens, UniProt P05121)
# Experiment: Inhibitory activity against plasminogen activator inhibitor 1 (PAI-1) was evaluated by inhibition of tissue plasminogen activator/PAI-1 complex formation in t-PA-induced fibrin clot lysis assay
# Chain of Plasminogen activator inhibitor 1 (P05121 whole entry): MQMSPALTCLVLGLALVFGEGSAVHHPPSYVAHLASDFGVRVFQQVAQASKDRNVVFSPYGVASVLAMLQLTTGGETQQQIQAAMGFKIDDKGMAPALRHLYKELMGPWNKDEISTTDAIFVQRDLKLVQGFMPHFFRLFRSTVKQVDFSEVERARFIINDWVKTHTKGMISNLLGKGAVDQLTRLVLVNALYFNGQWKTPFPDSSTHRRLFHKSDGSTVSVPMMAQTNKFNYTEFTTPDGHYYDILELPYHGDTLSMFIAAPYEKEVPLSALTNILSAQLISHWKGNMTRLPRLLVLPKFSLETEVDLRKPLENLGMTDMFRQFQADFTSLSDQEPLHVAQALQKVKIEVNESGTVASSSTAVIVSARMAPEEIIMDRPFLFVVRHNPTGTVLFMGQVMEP
row,IC50 [nM],Structure (SMILES)
1,6060,O=C(O)/C(=C/c1sc2cc(OCc3ccc(-c4ccccc4)cc3)c(OCc3ccc(-c4ccccc4)cc3)cc2c1Oc1ccc2ncccc2c1)c1ccncc1
2,470,COC(=O)/C(=C/c1sc2cc(OCc3ccccc3)c(OCc3ccccc3)cc2c1Oc1ccc(Cl)cc1)c1ccncc1
3,2400,O=C(O)/C(=C/c1sc2cc(OCc3ccc(-c4ccccc4)cc3)c(OCc3ccc(-c4ccccc4)cc3)cc2c1Oc1cccnc1)c1ccncc1
4,220,O=C(O)/C(=C/c1sc2cc(OCc3cccc(-c4ccccc4)c3)c(OCc3cccc(-c4ccccc4)c3)cc2c1Oc1ccc(Cl)cc1)c1ccncc1
5,2910,O=C(O)/C(=C/c1sc2cc(OCc3ccc(-c4ccccc4)cc3)c(OCc3ccc(-c4ccccc4)cc3)cc2c1Oc1ccc(-n2ccnc2)cc1)c1ccncc1
6,2480,Cc1ccc(Oc2c(/C=C(/C(=O)O)c3ccncc3)sc3cc(OCc4ccc(-c5ccccc5)cc4)c(OCc4ccc(-c5ccccc5)cc4)cc23)cn1
7,140,COc1ccc(-c2ccc(COc3cc4sc(/C=C(/C(=O)O)c5ccncc5)c(Oc5ccc(Cl)cc5)c4cc3OCc3ccc(-c4ccc(OC)cc4)cc3)cc2)cc1
8,100,O=C(O)/C(=C/c1sc2cc(OCc3ccc(Oc4ccccc4)cc3)c(OCc3ccc(Oc4ccccc4)cc3)cc2c1Oc1ccc(Cl)cc1)c1ccncc1
9,2280,O=C(O)/C(=C/c1sc2cc(OCc3ccc(-c4ccccc4)cc3)c(OCc3ccc(-c4ccccc4)cc3)cc2c1Oc1ccc(Cl)c(F)c1)c1ccncc1
10,1090,Cc1cc(Oc2c(/C=C(/C(=O)O)c3ccncc3)sc3cc(OCc4ccc(-c5ccccc5)cc4)c(OCc4ccc(-c5ccccc5)cc4)cc23)cc(C)c1Cl
11,480,Cc1cc(Oc2c(/C=C(/C(=O)O)c3ccncc3)sc3cc(OCc4ccc(-c5ccccc5)cc4)c(OCc4ccc(-c5ccccc5)cc4)cc23)ccc1Cl
12,51000,CN(C)CCSc1ccc(/C=c2\[nH]c(=O)/c(=C/c3ccccc3)[nH]c2=O)cc1
13,59400,COc1ccc(/C=c2\[nH]c(=O)/c(=C/c3ccccc3)[nH]c2=O)cc1
14,100,O=C(O)/C(=C/c1sc2cc(OCc3ccc(-c4ccccc4)cc3)c(OCc3ccc(-c4ccccc4)cc3)cc2c1Oc1ccccc1)c1ccncc1
15,10800,O=C(O)/C(=C/c1sc2cc(OCc3ccccc3-c3ccccc3)c(OCc3ccccc3-c3ccccc3)cc2c1Oc1ccc(Cl)cc1)c1ccncc1
16,39,O=C(O)/C(=C/c1sc2cc(OCc3ccc(Sc4ccccc4)cc3)c(OCc3ccc(Sc4ccccc4)cc3)cc2c1Oc1ccc(Cl)cc1)c1ccncc1
17,2070,O=C(O)/C(=C/c1sc2cc(OCc3ccc(-c4ccccc4)cc3)c(OCc3ccc(-c4ccccc4)cc3)cc2c1Oc1ccc(Cl)nc1)c1ccncc1
18,106000,CN(C)CCSc1ccc(/C=c2\[nH]c(=O)/c(=C/c3ccccc3)[nH]c2=O)s1
19,10700,O=C(O)/C(=C/c1sc2cc(OCc3ccc(-c4ccccc4)cc3)c(OCc3ccc(-c4ccccc4)cc3)cc2c1Oc1ccc(Oc2ccncc2)cc1)c1ccncc1
20,270,O=C(O)/C(=C/c1sc2cc(OCc3ccc(Cc4ccccc4)cc3)c(OCc3ccc(Cc4ccccc4)cc3)cc2c1Oc1ccc(Cl)cc1)c1ccncc1
21,770,O=C(O)/C(=C/c1sc2cc(OCc3ccc(S(=O)(=O)c4ccccc4)cc3)c(OCc3ccc(S(=O)(=O)c4ccccc4)cc3)cc2c1Oc1ccc(Cl)cc1)c1ccncc1
22,240,O=C(O)/C(=C/c1sc2cc(OCc3ccc(-c4ccccc4)cc3)c(OCc3ccc(-c4ccccc4)cc3)cc2c1Oc1cccc(F)c1)c1ccncc1
23,590,O=C(O)/C(=C/c1sc2cc(OCc3ccc(-c4ccccc4)cc3)c(OCc3ccc(-c4ccccc4)cc3)cc2c1Oc1ccc(F)c(F)c1)c1ccncc1

# Reference: ChEMBL document CHEMBL1136383, “New fibrinolytic agents: benzothiophene derivatives as inhibitors of the t-PA-PAI-1 complex formation” (Bioorg Med Chem Lett, 2003)
